# Test results taken from US20240409556A1, “BENZOPIPERAZINE AND RELATED ANALOGS FOR INHIBITING YAP/TAZ-TEAD” (Springworks Therapeutics, Inc., priority 2023, published 2024).
# Test system: YAP/TAZ-TEAD transcription
# Test: Reporter gene assay for measuring the inhibition of YAP/TAZ-TEAD transcription (TEAD-responsive element luciferase reporter in Hek293T cells)
# Format: cell-based
# Conditions: 24 hours incubation
# Experimental: Example 56: Activity of Compounds of the Disclosure in a Reporter Gene Assay for Measuring the Inhibition of YAP/TAZ-TEAD Transcription
# Hek293T cells were cultured in DMEM supplemented with 10% fetal bovine serum, Sodium pyruvate, Sodium bicarbonate, L-glutamine. The cells were harvested and transiently transfected with TEAD-responsive element luciferase reporter. Transfected cells were plated in 384-well plate containing pre-diluted compounds. After 24 hours incubation at 37° C./5% CO2, assay plates were cooled to room temperature and levelled to an equal volume per well, prior to the addition of 25 uL luciferase substrate SteadyLite (Perkin Elmer)/well. The plate was shaken for 10 min at 600 rpm, centrifuged for 1 min at 500 rpm and measured with an Envision reader (PerkinElmer). The amount of relative light units produced by the TEAD reporter was used to calculate the percentage of inhibition.
# The percent of reporter inhibition was calculated in the presence of a positive control inhibitor (100% inhibition) versus a condition with the presence of the vehicle basal activity of the reporter (0% inhibition). The ability of a test compound to inhibit this activity was determined as: Percentage inhibition=[[…]((RLU determined in the presence of vehicle−RLU determined for sample with test compound present) divided by (RLU determined in the presence of vehicle−RLU determined for sample with positive control inhibitor))]*100.
# The activities of example compounds tested are depicted in Table 3. The activity ranges A, B and C refer to IC50 values in the reporter gene assay as follows: “A”: IC50<1 μM; “B”: 1 μM≤IC50≤10 μM and “C”: IC50>10 μM; NT=not tested.
row,Structure (SMILES),IC50
1,"CC(=O)NCC1CN(c2ccc(C(F)(F)F)cc2)c2ccc(C3CC3)nc2O1 (single isomer, unassigned) [81-En2, (R)- or (S)-N-((6-cyclopropyl-1-(4-(trifluoromethyl)phenyl)-2,3-dihydro-1H-pyrido[2,3-b][1,4]oxazin-3-yl)methyl)acetamide]",< 1000 nM
2,"CC(=O)NCC1CN(c2ccc(C(F)(F)F)cc2)c2ccc(C)nc2O1 (single isomer, unassigned) [77-En2, (R)- or (S)-N-((6-methyl-1-(4-(trifluoromethyl)phenyl)-2,3-dihydro-1H-pyrido[2,3-b][1,4]oxazin-3-yl)methyl)acetamide]",< 1000 nM
3,"CC(=O)N1CCN2c3ncccc3N(c3ccc(C(F)(F)F)cn3)CC2C1 (stereo not drawn) [compound 53, 1-(5-(5-(trifluoromethyl)pyridin-2-yl)-5,6,6a,7,9,10-hexahydro-8H-pyrazino[1,2-a]pyrido[3,2-e]pyrazin-8-yl)ethan-1-one]",< 1000 nM
4,"CC(=O)NCC1CN(c2ccc(C(F)(F)F)cc2)c2ccc(N(C)C)nc2O1 (single isomer, unassigned) [87-En2, (R)- or (S)-N-((6-(dimethylamino)-1-(4-(trifluoromethyl)phenyl)-2,3-dihydro-1H-pyrido[2,3-b][1,4]oxazin-3-yl)methyl)acetamide]",< 1000 nM
5,"C=CC(=O)N1CCN2c3ncccc3N(c3ccc(C(F)(F)F)cc3)CC2C1 (stereo not drawn) [28-En2, 1-(5-(4-(trifluoromethyl)phenyl)-5,6,6a,7,9,10-hexahydro-8H-pyrazino[1,2-a]pyrido[3,2-e]pyrazin-8-yl)prop-2-en-1-one]",< 1000 nM
6,"COc1ccc2c(n1)OC(CNC(C)=O)CN2c1ccc(C(F)(F)F)cc1 (single isomer, unassigned) [73-En2, (R)- or (S)-N-((6-methoxy-1-(4-(trifluoromethyl)phenyl)-2,3-dihydro-1H-pyrido[2,3-b][1,4]oxazin-3-yl)methyl)acetamide]",< 1000 nM

# Next, values leading:
row,IC50,Structure (SMILES)
1,1000 to 10000 nM,"CC1(C(=O)O)CCN2c3ccccc3N(c3ccc(C(F)(F)F)cc3)CC2C1 [115-D1, (6aS,8S)— or (6aR,8S)— or (6aR,8R)— or (6aS,8R)-8-methyl-5-(4-(trifluoromethyl)phenyl)-6,6a,7,8,9,10-hexahydro-5H-pyrido[1,2-a]quinoxaline-8-carboxylic acid]"
2,> 10000 nM,"CC(=O)N1CC(=O)N2c3ccccc3N(c3ccc(C(F)(F)F)cc3)CC2C1 (single isomer, unassigned) [79-En1, (R)- or (S)-3-acetyl-6-(4-(trifluoromethyl)phenyl)-2,3,4,4a,5,6-hexahydro-1H-pyrazino[1,2-a]quinoxalin-1-one]"
3,< 1000 nM,"C=CC(=O)N1CC2CN(c3ccc(C(F)(F)F)cc3)c3ccccc3N2CC1C(=O)O (stereo not drawn) [compound 89, (cis)- or (trans)-3-acryloyl-6-(4-(trifluoromethyl)phenyl)-2,3,4,4a,5,6-hexahydro-1H-pyrazino[1,2-a]quinoxaline-2-carboxylic acid]"
4,< 1000 nM,"O=C(O)C1(F)CCN2c3ccccc3N(c3ccc(C(F)(F)F)cc3)CC2C1 [123-D2, (6aS,8S)- or (6aR,8S)- or (6aR,8R)- or (6aS,8R)-8-fluoro-5-(4-(trifluoromethyl)phenyl)-6,6a,7,8,9,10-hexahydro-5H-pyrido[1,2-a]quinoxaline-8-carboxylic acid]"
5,< 1000 nM,"CNC(=O)N1CCN2c3ncccc3N(c3ccc(C(F)(F)F)cc3)CC2C1 (single isomer, unassigned) [52-En1, (R)- or (S)-N-methyl-5-(4-(trifluoromethyl)phenyl)-5,6,6a,7,9,10-hexahydro-8H-pyrazino[1,2-a]pyrido[3,2-e]pyrazine-8-carboxamide]"

# Same assay, conditions: Homo sapiens, HEK-293T, 24 h, 24 hours incubation
row,Structure (SMILES),IC50
1,"CNC(=O)O[C@@H]1C[C@@H]2CN(c3ccc(C(F)(F)F)cc3)c3cccnc3N2C1 [compound 92, (6aR,8R)-5-(4-(trifluoromethyl)phenyl)-5,6,6a,7,8,9-hexahydropyrido[3,2-e]pyrrolo[1,2-a]pyrazin-8-yl methylcarbamate]",< 1000 nM
2,"CC(=O)NCC1CN(c2ccc(C(F)(F)F)cc2)c2ccc(OC(F)F)nc2O1 (stereo not drawn) [compound 108, N-((6-(difluoromethoxy)-1-(4-(trifluoromethyl)phenyl)-2,3-dihydro-1H-pyrido[2,3-b][1,4]oxazin-3-yl)methyl)acetamide]",1000 to 10000 nM
3,"CC(=O)N1CCN2C(=O)CN(c3ccc(C(F)(F)F)cc3)CC2C1 (stereo not drawn) [compound 44, 8-acetyl-2-(4-(trifluoromethyl)phenyl)octahydro-4H-pyrazino[1,2-a]pyrazin-4-one]",> 10000 nM
4,"C=CC(=O)N1CCN2C(C1)CN(c1ccc(C(F)(F)F)cc1)C1C2C1(Cl)Cl (stereo not drawn) [compound 43, 1-(1,1-dichloro-2-(4-(trifluoromethyl)phenyl)octahydrocyclopropa[e]pyrazino[1,2-a]pyrazin-5(1H)-yl)prop-2-en-1-one]",< 1000 nM
5,"CC(=O)N1CCN2c3nccnc3N(c3ccc(C(F)(F)F)cc3)CC2C1 (stereo not drawn) [compound 40, 1-(5-(4-(trifluoromethyl)phenyl)-5,6,6a,7,9,10-hexahydro-8H-dipyrazino[1,2-a:2′,3′-e]pyrazin-8-yl)ethan-1-one]",< 1000 nM
6,"C=CC(=O)NCC1CN(c2ccc(C(F)(F)F)cc2)c2ccccc2N1CC(=O)NC (stereo not drawn) [compound 12, N-((1-(2-(methylamino)-2-oxoethyl)-4-(4-(trifluoromethyl)phenyl)-1,2,3,4-tetrahydroquinoxalin-2-yl)methyl)acrylamide]",< 1000 nM
7,"CC(=O)NCC1CN(c2ccc(C(F)(F)F)cc2)c2ccc(N(C)C)nc2O1 (stereo not drawn) [compound 87, N-((6-(dimethylamino)-1-(4-(trifluoromethyl)phenyl)-2,3-dihydro-1H-pyrido[2,3-b][1,4]oxazin-3-yl)methyl)acetamide]",< 1000 nM
8,"C=CC(=O)NCC1CN(c2ccc(C(F)(F)F)cc2)c2ccccc2N1CCC(=O)O (stereo not drawn) [compound 7, 3-(2-(acrylamidomethyl)-4-(4-(trifluoromethyl)phenyl)-3,4-dihydroquinoxalin-1(2H)-yl)propanoic acid]",> 10000 nM
9,"C=CC(=O)N1CCN2CCN(c3ccc(C(F)(F)F)cc3)CC2C1 (stereo not drawn) [compound 21, 1-(8-(4-(trifluoromethyl)phenyl)octahydro-2H-pyrazino[1,2-a]pyrazin-2-yl)prop-2-en-1-one]",< 1000 nM
10,"CC(=O)N[C@H]1C[C@@H]2CN(c3ccc(C(F)(F)F)cc3)c3cccnc3N2C1 [70-D2, N-((6aR,8S)-5-(4-(trifluoromethyl)phenyl)-5,6,6a,7,8,9-hexahydropyrido[3,2-e]pyrrolo[1,2-a]pyrazin-8-yl)acetamide]",< 1000 nM
11,"O=C(CO)N[C@@H]1C[C@@H]2CN(c3ccc(C(F)(F)F)cc3)c3cccnc3N2C1 [compound 95, 2-hydroxy-N-((6aR,8R)-5-(4-(trifluoromethyl)phenyl)-5,6,6a,7,8,9-hexahydropyrido[3,2-e]pyrrolo[1,2-a]pyrazin-8-yl)acetamide]",< 1000 nM

# Further lines, results first:
row,IC50,Structure (SMILES)
1,< 1000 nM,"Cc1ccc2c(n1)N1CCC(C(=O)O)CC1CN2c1ccc(C(F)(F)F)cc1 [101-D1, (6aS,8S)— or (6aR,8S)— or (6aR,8R)— or (6aS,8R)-2-methyl-5-(4-(trifluoromethyl)phenyl)-6,6a,7,8,9,10-hexahydro-5H-dipyrido[1,2-a:3′,2′-e]pyrazine-8-carboxylic acid]"
2,< 1000 nM,"O=C(O)C1CCN2c3ccccc3N(c3ccc(C(F)(F)F)cc3)CC2C1 (stereo not drawn) [65A, (cis)- or (trans)-5-(4-(trifluoromethyl)phenyl)-6,6a,7,8,9,10-hexahydro-5H-pyrido[1,2-a]quinoxaline-8-carboxylic acid]"
3,< 1000 nM,"CC(=O)N1CC(N2CCN(c3ccc(C(F)(F)F)cc3)c3ccccc32)C1 [compound 56, 1-(3-(4-(4-(trifluoromethyl)phenyl)-3,4-dihydroquinoxalin-1(2H)-yl)azetidin-1-yl)ethan-1-one]"
4,> 10000 nM,"FC(F)(F)c1ccc(N2CC3CN(c4ncco4)CCN3c3ccccc32)cc1 (stereo not drawn) [compound 25, 2-(6-(4-(trifluoromethyl)phenyl)-1,2,4,4a,5,6-hexahydro-3H-pyrazino[1,2-a]quinoxalin-3-yl)oxazole]"
5,< 1000 nM,"CNC(=O)N1CCN2c3ncccc3N(c3ccc(C(F)(F)F)cc3)CC2C1 (stereo not drawn) [compound 52, N-methyl-5-(4-(trifluoromethyl)phenyl)-5,6,6a,7,9,10-hexahydro-8H-pyrazino[1,2-a]pyrido[3,2-e]pyrazine-8-carboxamide]"
6,> 10000 nM,"CC(=O)NCC1CN(c2ccc(C(F)(F)F)cc2)c2ccccc2N1CCO (stereo not drawn) [compound 2, N-((1-(2-hydroxyethyl)-4-(4-(trifluoromethyl)phenyl)-1,2,3,4-tetrahydroquinoxalin-2-yl)methyl)acetamide]"
7,< 1000 nM,"O=C(NO)C1CCN2c3ccccc3N(c3ccc(C(F)(F)F)cc3)CC2C1 [116B-En1, (6aS,8S)- or (6aR,8S)- or (6aR,8R)- or (6aS,8R)-N-hydroxy-5-(4-(trifluoromethyl)phenyl)-6,6a,7,8,9,10-hexahydro-5H-pyrido[1,2-a]quinoxaline-8-carboxamide]"
8,< 1000 nM,"C=CC(=O)NCC1CN(c2ccc(C(F)(F)F)cc2)c2ccccc2N1S(C)(=O)=O (stereo not drawn) [compound 23, N-((1-(methylsulfonyl)-4-(4-(trifluoromethyl)phenyl)-1,2,3,4-tetrahydroquinoxalin-2-yl)methyl)acrylamide]"
